Results: patent publication US20110244063A1, “NOVEL SEBUM SECRETION INHIBITORY AGENT” (BASF Beauty Care Solutions France S.A.S., priority 2008, published 2011)

What was measured:
Assay type in all cases: in vivo, human
[1] = tested on: Caucasian and Asian volunteers; test: Number of active sebaceous glands (number of spots on Sebutape patches, image analysis)
Experimental: (§1) The principle of this evaluation is based on the clinical and instrumental analysis of samples of secretions of sebum using Sebutape™ patches according to the conventional method.
(§2) The products tested were: • the extract according to the invention prepared in accordance with Example 1 a) is tested at final concentrations of from 0.5% to 2% of extract 1 a) diluted in water • an aqueous solution of zinc gluconate at 1% (10 mg/mL; 2.2×10^−2 mol/L) in water is used as positive control • no solution as negative control
The following treatment was carried out for each of the products tested: Caucasian and Asian volunteers applied a test product once a day, in blind conditions. Clinical and instrumental assessments, by application of Sebutape™ patches, were carried out on D0, D14 and D28 and the contents of these samples of Sebutape™ patches were analysed quantitatively by image analyser (polarimetric imaging). […]
(§3) The experiment was conducted on Caucasian and Asian volunteers according to the conditions described in Example 3 for 28 days of treatment (last application on D27 in the evening). Assessments carried out on D30 allowed the persistence of the effect of an extract according to the invention on the production of sebum to be evaluated, two days after stopping the treatment.

[2] = tested on: Caucasian and Asian volunteers; test: Squalene content of sebum sampled with Sebutape patches (HPTLC, densitometry); details: after 28 days of treatment; zinc gluconate 1%; signed change
Experimental: as §1, §2
(§4) The following treatment was carried out for each of the products tested: Caucasian and Asian volunteers applied a test product once a day, in blind conditions. Clinical and instrumental assessments, by application of Sebutape™ patches, were carried out on D0, D14 and D28 and the contents of these samples of Sebutape™ patches were analysed quantitatively by image analyser (polarimetric imaging).
Determination of the squalene taken in the Sebutape™ patches was carried out as follows:
The Sebutape™ patches were treated by extraction with 10 ml of ether. […]
The squalene spots were then quantified by densitometry using an instrument of the ChromatoScan CS-93 (Shimadzu) type. Reading was based on absorption at 450 nm and the area of the peaks was expressed in arbitrary units in the table of results given below.

[3] = tested on: Caucasian and Asian volunteers; test: Clinical assessment of pore size and shiny appearance in volunteers, once-daily topical application; details: after 28 days of treatment, extract at 2%, zinc gluconate 1%
Experimental: as §1, §2, §4, §3

Asian volunteers = test: Self-evaluation of skin texture (refinement of skin grain) after stopping treatment; details: 2 days after stopping the treatment, extract at 2%, zinc gluconate positive control
Experimental: as §3
Results for skin texture: (self-evaluation)
Moreover, 2 days after stopping the treatment, 71% of the Asian volunteers who had applied the extract according to Example 1 a) at 2% declared that there was refinement of their skin grain (p<0.05). In comparison, only 52% of the volunteers in the group of volunteers who had applied the positive control (zinc gluconate) noticed an improvement in this parameter.

Substance: zinc gluconate [Zinc gluconate 1%]
- Active sebaceous glands, % Dn/D0, 2 days after D28 ([1]; number of spots on Sebutape patches 2 days after stopping the treatment compared against D0): −3.8%
- Active sebaceous glands, % Dn/D0, D28 ([1]; number of spots on Sebutape patches after 28 days compared against D0): +8.5%
- Change of content of squalene in the sebum [2]: −14%
- Reduction of pore size (clinical assessment) [3]: 17.5%
- Volunteers who declared refinement of their skin grain (self-evaluation) (Asian volunteers): 52%
